In patent US8163921B2, “Hepatitis C virus inhibitors” (Bristol-Myers Squibb Company, priority 2008, dated 2012):
Read-outs that look alike come from different tables or passages of the source.

Assays:
[1] = target: T1, HCV NS3/4A protease complex, BMS strain (UniProt P27958, C1454S/C1711G, species not given); assay: FRET peptide assay to monitor HCV NS3/4A proteolytic activity (BMS strain); format: biochemical, HCV genotype 1a; conditions: read-out: IC50 Range, HCV NS3/4A enzyme assay
T1 construct: other: HCV NS3/4A enzyme assay; class symbols; numeric values; fused on or other part: three-lysine solubilising tail at the C-terminus of NS4A; purified on Ni-NTA from the pET21b vector (His tag implied)
In short: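 Recombinant HCV NS3/4A protease complex (BMS strain, genotype 1a), 2-3 nM final (300 pM with 50 μg/ml BSA for very potent compounds), incubated with RET S1 EDANS/DABCYL depsipeptide substrate at 2 μM final. Buffer: 50 mM HEPES pH 7.5, 0.15 M NaCl, 0.1% Triton, 15% glycerol, 10 mM βME. Cleavage followed in real time by fluorescence.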

[2] = test system: HCV replicon in HUH-7 cells; assay: HCV replicon FRET assay; format: cell-based, HCV strain 1b; conditions: Hepatitis C virus

| SMILES | IC50 ([1]; class symbols) [nM] | EC50 ([2]; Huh-7, read-out: EC50 Range) [nM] | IC50 ([1]; numeric values) [nM] | EC50 ([2]; Huh-7, HCV replicon cell assay, numeric values, read-out: EC50 Range) [nM] |
| --- | --- | --- | --- | --- |
| C=C[C@@H]1C[C@]1(NC(=O)[C@@H]1C[C@@H](Oc2ncc(OC)c3ccc(Cl)cc23)CN1C(=O)[C@@H](Nc1nc(-c2c(OC)cccc2OC)cs1)C(C)(C)C)C(=O)NS(=O)(=O)C1CC1 [Example 58] | 1 to 20 | 1 to 50 |  |  |
| C=C[C@@H]1C[C@]1(NC(=O)[C@@H]1C[C@@H](Oc2ncc(OC)c3ccc(Cl)cc23)CN1C(=O)[C@@H](Nc1nc(-c2cc(Cl)c(C)cc2OC)cs1)C(C)(C)C)C(=O)NS(=O)(=O)C1CC1 [Example 59] | 1 to 20 | 1 to 50 |  |  |
| C=C[C@@H]1C[C@]1(NC(=O)[C@@H]1C[C@@H](Oc2ncc(OC)c3ccc(Cl)cc23)CN1C(=O)[C@@H](Nc1nc(-c2cc(-c3ccccc3)no2)cs1)C(C)(C)C)C(=O)NS(=O)(=O)C1CC1 [Example 85] | 1 to 20 | 1 to 50 |  |  |
| C=C[C@@H]1C[C@]1(NC(=O)[C@@H]1C[C@@H](Oc2ncc(OC)c3ccc(Cl)cc23)CN1C(=O)[C@@H](Nc1nc(-c2cc(C)c(Cl)cc2F)cs1)C(C)(C)C)C(=O)NS(=O)(=O)C1CC1 [Example 92] | 1 to 20 | 1 to 50 |  |  |
| C=C[C@@H]1C[C@]1(NC(=O)[C@@H]1C[C@@H](Oc2ncc(OC)c3ccc(Cl)cc23)CN1C(=O)[C@@H](Nc1nc(-c2ccsc2)cs1)C(C)(C)C)C(=O)NS(=O)(=O)C1CC1 [Example 93] | 1 to 20 | 1 to 50 |  |  |
| COc1cnc(O[C@@H]2C[C@@H](C(=O)N[C@]3(C(=O)NS(=O)(=O)C4CC4)C[C@H]3CC(F)F)N(C(=O)[C@@H](Nc3nc(-c4ccc(F)c(C(F)(F)F)c4)cs3)C(C)(C)C)C2)c2cc(Cl)ccc12 [Example 97, (2S,4R)-4-(7-chloro-4-methoxyisoquinolin-1-yloxy)-N-((1R,2S)-1-(cyclopropylsulfonylcarbamoyl)-2-(2,2-difluoroethyl)cyclopropyl)-1-((S)-2-(4-(4-fluoro-3-(trifluoromethyl)phenyl)thiazol-2-ylamino)-3,3-dimethylbutanoyl)pyrrolidine-2-carboxamide] | 1 to 20 | 1 to 50 |  |  |
| COc1cnc(O[C@@H]2C[C@@H](C(=O)N[C@]3(C(=O)NS(=O)(=O)C4CC4)C[C@H]3CC(F)F)N(C(=O)[C@@H](Nc3nc(-c4cc(-c5ccc(Cl)cc5)no4)cs3)C(C)(C)C)C2)c2cc(Cl)ccc12 [Example 98] | 1 to 20 | 1 to 50 |  |  |
| COc1cnc(O[C@@H]2C[C@@H](C(=O)N[C@]3(C(=O)NS(=O)(=O)C4CC4)C[C@H]3CC(F)F)N(C(=O)[C@@H](Nc3nc(-c4ccc(Oc5ccccc5)cc4)cs3)C(C)(C)C)C2)c2cc(Cl)ccc12 [Example 99] | 20 to 200 | 50 to 200 |  |  |
| C=C[C@@H]1C[C@]1(NC(=O)[C@@H]1C[C@@H](Oc2ncc(OC)c3ccc(Cl)cc23)CN1C(=O)C(C)Nc1nnnn1-c1ccccc1)C(=O)NS(=O)(=O)C1CC1 (stereo partly drawn) [Example 100] |  |  | 795 | 334 |
